According to ChEMBL document CHEMBL1201862, “PubChem BioAssay data set” (2004):
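Values below derive from 48-hour exposures of cells grown in 96-well plates, with endpoints linearly interpolated between the two concentrations bracketing the appropriate inhibition level. The concentration for 50% growth inhibition is given as GI50.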 Calls of active or inactive are those of the source. Rule as the data show it: active = GI50 up to about 1.1 µM and inactive = higher.

What was measured:
Test in all cases: DTP human tumour cell line panel, 48 h
[1] = tested on: 786-0
[2] = tested on: A498
[3] = tested on: A549
[4] = tested on: ACHN
[5] = tested on: BT-549
[6] = tested on: CAKI-1
[7] = tested on: CCRF-CEM
[8] = tested on: COLO 205
[9] = tested on: DU-145
[10] = tested on: EKVX
[11] = tested on: HCC 2998
[12] = tested on: HCT-15
[13] = tested on: HL-60
[14] = tested on: HOP-92
[15] = tested on: Hs-578T
[16] = tested on: IGROV-1
[17] = tested on: K562
[18] = tested on: KM12
[19] = tested on: LOX IMVI
[20] = tested on: M14
[21] = tested on: MCF7
[22] = tested on: MDA-MB-231
[23] = tested on: MDA-MB-435
[24] = tested on: MDA-N
[25] = tested on: MOLT-4
[26] = tested on: Malme-3M
[27] = tested on: NCI-H226
[28] = tested on: NCI-H460
[29] = tested on: NCI-H522
[30] = tested on: NCI/ADR-RES
[31] = tested on: OVCAR-3
[32] = tested on: OVCAR-4
[33] = tested on: OVCAR-5
[34] = tested on: OVCAR-8
[35] = tested on: PC-3
[36] = tested on: RPMI-8226
[37] = tested on: RXF 393
[38] = tested on: SF-268
[39] = tested on: SF-295
[40] = tested on: SF-539
[41] = tested on: SK-MEL-28
[42] = tested on: SK-MEL-2
[43] = tested on: SK-MEL-5
[44] = tested on: SN12C
[45] = tested on: SNB-19
[46] = tested on: SNB-75
[47] = tested on: SR
[48] = tested on: SW-620
[49] = tested on: T47D
[50] = tested on: TK-10
[51] = tested on: U-251
[52] = tested on: UACC-257
[53] = tested on: UACC-62
[54] = tested on: UO-31
[55] = tested on: HCT-116
[56] = tested on: HOP-62
[57] = tested on: HT-29
[58] = tested on: NCI-H23
[59] = tested on: SK-OV-3

Compound: NC(CCCCNc1ccn(C2OC(CO)C(O)C2O)c(=O)n1)C(=O)O (configuration not stated)
- GI50 [1]: > 100 µM (inactive)
- GI50 [2]: > 100 µM (inactive)
- GI50 [3]: 50.5 µM (inactive)
- GI50 [4]: > 100 µM (inactive)
- GI50 [5]: > 100 µM (inactive)
- GI50 [6]: > 100 µM (inactive)
- GI50 [7]: 35 µM (inactive)
- GI50 [8]: > 100 µM (inactive)
- GI50 [9]: > 100 µM (inactive)
- GI50 [10]: > 100 µM (inactive)
- GI50 [11]: 76.6 µM (inactive)
- GI50 [12]: 74.5 µM
- GI50 [13]: > 100 µM (inactive)
- GI50 [14]: 53.7 µM (inactive)
- GI50 [15]: > 100 µM (inactive)
- GI50 [16]: 65.8 µM (inactive)
- GI50 [17]: > 100 µM (inactive)
- GI50 [18]: > 100 µM (inactive)
- GI50 [19]: > 100 µM (inactive)
- GI50 [20]: 37.8 µM (inactive)
- GI50 [21]: > 100 µM (inactive)
- GI50 [22]: > 100 µM (inactive)
- GI50 [23]: 88.1 µM (inactive)
- GI50 [24]: > 100 µM (inactive)
- GI50 [25]: 73.3 µM (inactive)
- GI50 [26]: > 100 µM (inactive)
- GI50 [27]: > 100 µM (inactive)
- GI50 [28]: > 100 µM (inactive)
- GI50 [29]: > 100 µM (inactive)
- GI50 [30]: > 100 µM (inactive)
- GI50 [31]: > 100 µM (inactive)
- GI50 [32]: > 100 µM (inactive)
- GI50 [33]: > 100 µM (inactive)
- GI50 [34]: 73.1 µM (inactive)
- GI50 [35]: > 100 µM (inactive)
- GI50 [36]: > 100 µM (inactive)
- GI50 [37]: > 100 µM (inactive)
- GI50 [38]: > 100 µM (inactive)
- GI50 [39]: 30.6 µM (inactive)
- GI50 [40]: > 100 µM (inactive)
- GI50 [41]: > 100 µM (inactive)
- GI50 [42]: 77.8 µM (inactive)
- GI50 [43]: > 100 µM (inactive)
- GI50 [44]: > 100 µM (inactive)
- GI50 [45]: > 100 µM (inactive)
- GI50 [46]: > 100 µM (inactive)
- GI50 [47]: > 100 µM (inactive)
- GI50 [48]: > 100 µM (inactive)
- GI50 [49]: > 100 µM (inactive)
- GI50 [50]: > 100 µM (inactive)
- GI50 [51]: 97.1 µM (inactive)
- GI50 [52]: > 100 µM (inactive)
- GI50 [53]: > 100 µM (inactive)
- GI50 [54]: > 100 µM (inactive)

Compound: N/C(=N/c1ccc(O)cc1)S(=O)O
- GI50 [1]: > 100 µM (inactive)
- GI50 [2]: > 100 µM (inactive)
- GI50 [3]: > 100 µM (inactive)
- GI50 [4]: > 100 µM (inactive)
- GI50 [5]: > 100 µM (inactive)
- GI50 [6]: > 100 µM (inactive)
- GI50 [7]: 89.9 µM (inactive)
- GI50 [8]: > 100 µM (inactive)
- GI50 [9]: > 100 µM (inactive)
- GI50 [10]: > 100 µM (inactive)
- GI50 [11]: > 100 µM (inactive)
- GI50 [55]: > 100 µM (inactive)
- GI50 [12]: > 100 µM
- GI50 [13]: > 100 µM (inactive)
- GI50 [56]: > 100 µM (inactive)
- GI50 [14]: > 100 µM (inactive)
- GI50 [57]: > 100 µM (inactive)
- GI50 [15]: > 100 µM (inactive)
- GI50 [16]: > 100 µM (inactive)
- GI50 [17]: > 100 µM (inactive)
- GI50 [18]: > 100 µM (inactive)
- GI50 [19]: > 100 µM (inactive)
- GI50 [20]: > 100 µM (inactive)
- GI50 [21]: > 100 µM (inactive)
- GI50 [22]: > 100 µM (inactive)
- GI50 [23]: > 100 µM (inactive)
- GI50 [24]: > 100 µM (inactive)
- GI50 [25]: > 100 µM (inactive)
- GI50 [26]: > 100 µM (inactive)
- GI50 [27]: 37.2 µM (inactive)
- GI50 [58]: > 100 µM (inactive)
- GI50 [29]: > 100 µM (inactive)
- GI50 [30]: > 100 µM (inactive)
- GI50 [31]: > 100 µM (inactive)
- GI50 [32]: > 100 µM (inactive)
- GI50 [33]: > 100 µM (inactive)
- GI50 [34]: > 100 µM (inactive)
- GI50 [35]: > 100 µM (inactive)
- GI50 [36]: > 100 µM (inactive)
- GI50 [37]: > 100 µM (inactive)
- GI50 [38]: > 100 µM (inactive)
- GI50 [39]: > 100 µM (inactive)
- GI50 [40]: > 100 µM (inactive)
- GI50 [41]: > 100 µM (inactive)
- GI50 [42]: > 100 µM (inactive)
- GI50 [43]: > 100 µM (inactive)
- GI50 [59]: 41.5 µM (inactive)
- GI50 [44]: > 100 µM (inactive)
- GI50 [45]: > 100 µM (inactive)
- GI50 [46]: > 100 µM (inactive)
- GI50 [47]: > 100 µM (inactive)
- GI50 [48]: > 100 µM (inactive)
- GI50 [49]: > 100 µM (inactive)
- GI50 [50]: > 100 µM (inactive)
- GI50 [51]: > 100 µM (inactive)
- GI50 [52]: > 100 µM (inactive)
- GI50 [53]: > 100 µM (inactive)
- GI50 [54]: > 100 µM (inactive)
